Legend:
[1] = target: T1, human MR (Homo sapiens, UniProt P08235); assay: Mineralocorticoid Receptor Binding Assay ([3H]-aldosterone); conditions: [3H]-aldosterone binding, human MR expressed in Sf9 cells; read-out: MR Ki
T1 construct: The full length human MR gene is cloned from a human kidney or human brain cDNA library; His tag from the pAcHLT vector (own knowledge); made in house; host or cells: Sf9 insect cells (baculovirus, pAcHLT transfer vector)
T1 sequence (P08235 1-984): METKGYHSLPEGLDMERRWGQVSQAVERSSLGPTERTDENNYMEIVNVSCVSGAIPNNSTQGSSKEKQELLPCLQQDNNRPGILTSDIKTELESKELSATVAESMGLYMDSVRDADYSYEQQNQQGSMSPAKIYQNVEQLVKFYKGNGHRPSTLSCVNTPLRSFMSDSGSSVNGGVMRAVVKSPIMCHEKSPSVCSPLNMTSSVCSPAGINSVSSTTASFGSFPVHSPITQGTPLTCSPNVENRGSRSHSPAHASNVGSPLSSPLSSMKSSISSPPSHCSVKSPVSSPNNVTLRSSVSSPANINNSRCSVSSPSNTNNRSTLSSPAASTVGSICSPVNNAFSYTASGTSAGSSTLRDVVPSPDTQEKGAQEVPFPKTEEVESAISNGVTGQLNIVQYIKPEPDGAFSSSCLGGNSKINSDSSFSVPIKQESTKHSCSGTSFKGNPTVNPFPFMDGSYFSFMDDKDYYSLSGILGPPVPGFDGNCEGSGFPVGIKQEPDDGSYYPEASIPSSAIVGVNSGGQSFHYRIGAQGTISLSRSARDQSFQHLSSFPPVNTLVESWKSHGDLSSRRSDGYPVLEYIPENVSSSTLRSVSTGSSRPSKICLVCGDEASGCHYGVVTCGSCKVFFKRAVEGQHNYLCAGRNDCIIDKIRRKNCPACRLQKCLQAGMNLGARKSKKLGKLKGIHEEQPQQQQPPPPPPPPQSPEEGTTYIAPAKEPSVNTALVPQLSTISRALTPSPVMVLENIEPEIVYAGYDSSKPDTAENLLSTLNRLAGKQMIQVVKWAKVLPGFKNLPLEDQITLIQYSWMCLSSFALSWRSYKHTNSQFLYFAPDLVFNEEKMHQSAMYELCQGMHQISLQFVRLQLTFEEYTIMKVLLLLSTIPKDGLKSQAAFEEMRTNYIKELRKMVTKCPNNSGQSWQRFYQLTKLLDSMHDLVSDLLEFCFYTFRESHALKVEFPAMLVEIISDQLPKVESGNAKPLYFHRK
How it was run: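 Lysate supernatant of Sf9 cells expressing full-length human MR (20-25 μg protein) was incubated with 0.5 nM [3H]-aldosterone and test compound in molybdate/Tris/phosphate/glycerol buffer, pH 7.5, ~16 h at 4 °C. Bound ligand was filtered and counted by scintillation; IC50 is the concentration halving [3H]-aldosterone binding.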

[2] = target: T2, glucocorticoid receptor (Homo sapiens, UniProt P04150); assay: Glucocorticoid Receptor Binding Assay ([3H]-dexamethasone, A549 cell extract); conditions: [3H]-dexamethasone binding, read-out: GR Ki
T2 construct: containing 50-200 ug of A549 cell extract and 1.86 nM [^3H]-dexamethasone; host or cells: A549 human lung epithelial cells (sonicated cell extract)
T2 sequence (P04150 1-777): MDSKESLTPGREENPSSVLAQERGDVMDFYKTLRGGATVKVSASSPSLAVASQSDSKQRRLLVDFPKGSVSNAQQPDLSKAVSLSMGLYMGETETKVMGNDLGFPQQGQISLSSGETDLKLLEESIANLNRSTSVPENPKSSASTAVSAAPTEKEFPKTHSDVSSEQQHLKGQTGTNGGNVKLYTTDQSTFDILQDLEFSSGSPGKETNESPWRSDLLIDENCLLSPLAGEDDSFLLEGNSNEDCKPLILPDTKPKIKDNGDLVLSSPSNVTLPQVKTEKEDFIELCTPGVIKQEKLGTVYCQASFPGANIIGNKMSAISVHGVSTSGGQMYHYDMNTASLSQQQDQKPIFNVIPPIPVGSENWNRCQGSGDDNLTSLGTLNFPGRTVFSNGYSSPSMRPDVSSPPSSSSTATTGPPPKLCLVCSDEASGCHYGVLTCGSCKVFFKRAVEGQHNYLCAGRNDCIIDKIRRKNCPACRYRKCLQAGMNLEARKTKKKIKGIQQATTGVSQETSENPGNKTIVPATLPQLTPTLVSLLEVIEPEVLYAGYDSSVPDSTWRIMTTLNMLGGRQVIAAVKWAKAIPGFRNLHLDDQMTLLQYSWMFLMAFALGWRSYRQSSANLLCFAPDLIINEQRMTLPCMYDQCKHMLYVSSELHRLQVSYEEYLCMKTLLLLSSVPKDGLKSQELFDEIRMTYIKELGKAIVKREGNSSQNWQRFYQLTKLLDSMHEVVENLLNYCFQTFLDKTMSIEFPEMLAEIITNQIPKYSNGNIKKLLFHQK
How it was run: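 A549 cell extract (50–200 ug) incubated with 1.86 nM [3H]-dexamethasone and test compound for 16 h at 4 °C in Tris-HCl pH 7.2 buffer with glycerol and molybdate. Unbound radioligand removed by dextran-coated charcoal, then supernatant bound counts measured by scintillation.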

| SMILES | Ki [1] | Ki [2] |
| --- | --- | --- |
| CS(=O)(=O)Nc1cccc(/C=C2/c3ccccc3OCc3c(F)cccc32)c1 [Example 731] | < 500 nM | < 500 nM |
| CS(=O)(=O)Nc1cccc(/C=C2\c3ccccc3OCc3c(F)cccc32)c1 [Example 732] | < 500 nM | < 500 nM |
| COc1cccc2c1COc1ccccc1[C@H]2Cc1cccc(NS(C)(=O)=O)c1 [Example 733] | < 500 nM | < 500 nM |
| COc1ccc2c(c1)COc1ccccc1[C@H]2Cc1cccc(NS(C)(=O)=O)c1 [Example 734] | < 500 nM | < 500 nM |
| COc1ccc2c(c1)COc1cc(F)ccc1/C2=C\c1cccc(NS(C)(=O)=O)c1 [Example 735] | < 500 nM | < 500 nM |
| COc1ccc2c(c1)COc1cc(F)ccc1/C2=C/c1cccc(NS(C)(=O)=O)c1 [Example 736] | < 500 nM | < 500 nM |
| COc1cccc2c1[C@H](Cc1cccc(NS(C)(=O)=O)c1)c1ccccc1OC2 [Example 737] | < 500 nM | < 500 nM |
| COc1ccc2c(c1OC)CSc1ccccc1/C2=C/c1cccc(NS(=O)(=O)c2ccccc2)c1 [Example 738] | < 500 nM | < 500 nM |
| O=S(=O)(Nc1cccc(/C=C2\c3ccccc3CSc3ccccc32)c1)c1ccccc1 [Example 739] | < 500 nM | < 500 nM |
| Cc1ccc2c(c1)CSc1ccccc1C2=Cc1cccc(NS(C)(=O)=O)c1 [Example 740] | < 500 nM | < 500 nM |
| CS(=O)(=O)Nc1cccc(/C=C2/c3ccccc3CSc3cc(Cl)ccc32)c1 [Example 741] | < 500 nM | < 500 nM |
| CS(=O)(=O)Nc1cccc(/C=C2\c3ccccc3CSc3cc(Cl)ccc32)c1 [Example 742] | < 500 nM | < 500 nM |
| Cc1ccc2c(c1)CSc1ccccc1/C2=C\c1cccc(NS(C)(=O)=O)c1 [Example 743] | < 500 nM | < 500 nM |
| Cc1ccc2c(c1)CSc1ccccc1/C2=C/c1cccc(NS(C)(=O)=O)c1 [Example 744] | < 500 nM | < 500 nM |
| CS(=O)(=O)Nc1cccc(/C=C2/c3ccccc3CSc3cc(F)ccc32)c1 [Example 745] | < 500 nM | < 500 nM |
| CS(=O)(=O)Nc1cccc(/C=C2\c3ccccc3CSc3cc(F)ccc32)c1 [Example 746] | < 500 nM | < 500 nM |
| COc1ccc2c(c1)SCc1ccccc1C2=Cc1cccc(NS(C)(=O)=O)c1 [Example 747] | < 500 nM | < 500 nM |
| Cc1ccc2c(c1)SCc1ccccc1/C2=C/c1cccc(NS(C)(=O)=O)c1 [Example 748] | < 500 nM | < 500 nM |
| Cc1ccc2c(c1)SCc1ccccc1/C2=C\c1cccc(NS(C)(=O)=O)c1 [Example 749] | < 500 nM | < 500 nM |
| CCOC(=O)C(=C1c2ccccc2CCc2ccccc21)c1cccc(NS(C)(=O)=O)c1 [Example 753, (10,11-Dihydro-dibenzo[a,d]cyclohepten-5-ylidene)-(3-methanesulfonylamino-phenyl)-acetic acid ethy lester] | < 500 nM | < 500 nM |
| CS(=O)(=O)Nc1cccc(C(CO)=C2c3ccccc3CCc3ccccc32)c1 [Example 755, N-{3-[1-(10,11-Dihydro-dibenzo[a,d]cyclohepten-5-ylidene)-2-hydroxy-ethyl]-phenyl}-methanesulfonamide] | < 500 nM | < 500 nM |
| CCC(=C1c2ccccc2CCc2ccccc21)c1cccc(N)c1 [Example 760] | < 500 nM | < 10000 nM |

| SMILES | Ki [1] | Ki [2] |
| --- | --- | --- |
| CC(=C1c2ccccc2CCc2ccccc21)c1cccc(N)c1 [Example 761] | < 500 nM | < 500 nM |
| CS(=O)(=O)Nc1cccc(C(=C2c3ccccc3CCc3ccccc32)c2ccccc2)c1 [Example 762] | < 500 nM | < 500 nM |
| CCC(=C1c2ccccc2CCc2ccccc21)c1cccc(NS(C)(=O)=O)c1 [Example 763] | < 500 nM | < 500 nM |
| CC(=C1c2ccccc2CCc2ccccc21)c1cccc(NS(C)(=O)=O)c1 [Example 765] | < 500 nM | < 500 nM |
| Nc1cccc(C(=C2c3ccccc3CCc3ccccc32)c2ccc(-c3ccccc3)cc2)c1 [Example 766] | < 500 nM | < 10000 nM |
| CS(=O)(=O)Nc1cccc(C(=C2c3ccccc3CCc3ccccc32)c2ccc(-c3ccccc3)cc2)c1 [Example 767] | < 500 nM | < 500 nM |
| COc1ccc(C(=C2c3ccccc3CCc3ccccc32)c2cccc(NS(C)(=O)=O)c2)cc1 [Example 768] | < 500 nM | < 10000 nM |
| CC(=C1c2ccc(C)cc2CCc2cc(C)ccc21)c1cccc(NS(C)(=O)=O)c1 [Example 771] | < 500 nM | < 500 nM |
| CCC(=C1c2ccc(C)cc2CCc2cc(C)ccc21)c1cccc(NS(C)(=O)=O)c1 [Example 772] | < 500 nM | < 500 nM |
| CC(=C1c2ccccc2CCc2cc(C)ccc21)c1cccc(NS(C)(=O)=O)c1 [Example 773] | < 500 nM | < 500 nM |
| CCC(=C1c2ccccc2CCc2cc(C)ccc21)c1cccc(NS(C)(=O)=O)c1 [Example 774] | < 500 nM | < 500 nM |
| CC(=C1c2ccc(F)cc2CCc2cc(F)ccc21)c1cccc(NS(C)(=O)=O)c1 [Example 775] | < 500 nM | < 500 nM |
| CCC(=C1c2ccc(F)cc2CCc2cc(F)ccc21)c1cccc(NS(C)(=O)=O)c1 [Example 776] | < 500 nM | < 500 nM |
| CC(=C1c2ccc(Cl)cc2CCc2cc(Cl)ccc21)c1cccc(NS(C)(=O)=O)c1 [Example 777] | < 500 nM | < 500 nM |
| CCC(=C1c2ccc(Cl)cc2CCc2cc(Cl)ccc21)c1cccc(NS(C)(=O)=O)c1 [Example 778] | < 500 nM | < 500 nM |
| CC/C(=C1\c2ccccc2CCc2cc(C)ccc21)c1cccc(NS(C)(=O)=O)c1 [Example 779] | < 500 nM | < 500 nM |
| CC/C(=C1/c2ccccc2CCc2cc(C)ccc21)c1cccc(NS(C)(=O)=O)c1 [Example 780] | < 500 nM | < 500 nM |
| CC(C)CC(=C1c2ccccc2CCc2ccccc21)c1cccc(NS(C)(=O)=O)c1 [Example 783] | < 500 nM | < 500 nM |
| C/C(=C1\c2ccccc2COc2cc(C)ccc21)c1cccc(NS(C)(=O)=O)c1 [Example 784] | < 500 nM | < 500 nM |
| C/C(=C1\c2ccccc2COc2cc(C)c(Br)cc21)c1cccc(NS(C)(=O)=O)c1 [Example 785] | < 500 nM | < 500 nM |
| C/C(=C1/c2ccccc2COc2cc(C)ccc21)c1cccc(NS(C)(=O)=O)c1 [Example 786] | < 500 nM | < 500 nM |
| C/C(=C1\c2ccccc2CCc2c(F)cccc21)c1cccc(NS(C)(=O)=O)c1 [Example 787] | < 500 nM | < 500 nM |

— patent publication US20060063759A1, “Tricyclic steroid hormone nuclear receptor modulators” (priority 2002, published 2006)
